Patent US20250101063A1, “POLYPEPTIDE COMPOUND AND USE THEREOF IN TREATMENT OF ENTERITIS” (Sichuan Gooddoctor Panxi Pharmaceutical Co., Ltd., priority 2022, published 2025)
Where no end group is shown, it is not given here. [ ]: non-standard residue; d: D form. pGlu = O=C1CC[C@@H](C(=O)O)N1

Assays:
[1] = system: TNBS-induced model of acute inflammatory bowel disease (UC) in SD rat; experiment: TNBS-induced model of acute inflammatory bowel disease (UC) in SD rat; type: in vivo
Description: In this experiment, a rat model of ulcerative colitis was established by administering trinitrobenzene sulfonic acid (TNBS) to laboratory animal male SD rats for a single enema intervention. Acute colitis in rats induced by trinitrobenzene sulfonic acid (TNBS) is an immune response induced by cytokines secreted by Th1 type cells. […] This model is simple to establish and has good reproducibility. It is an experimental animal model widely used in evaluating drugs for the treatment of inflammatory bowel disease. […] During the experimental treatment period (D1-D14), the body weight and general clinical observation indicators (including but not limited to food intake, water intake, activity level and defecation, etc.) of the animals in each experimental group were dynamically collected. At the same time, based on the relevant scoring standards for the disease activity index of ulcerative colitis, the reactivity such as the weight loss degree, stool morphology and trait, and bloody stool of the animals in each experimental group after TNBS induction were scored, and the disease activity index (DAI) of ulcerative colitis was calculated, once a day for 14 consecutive days. At the end point of the experiment, colon tissues of animals in each experimental group were collected, and the length and weight of the colon were measured and then the non-autopsy images were collected. Then the colon was cut open along the intestinal wall longitudinally and autopsy images were collected. Based on the “Criteria for Scoring Gross Morphological Manifestations of the Colon”, the gross damage with respect to colon adhesions, colon ulcers and inflammation of animals in each experimental group was observed and scored. Ulcer images were collected under a stereomicroscope and the area of colon ulcer foci was calculated, followed by routine fixation.

[2] = system: zebrafish model of intestinal mucosal injury; experiment: Efficacy in relieving colitis: intestinal lumen area in TNBS-treated zebrafish; type: in vivo; design: key to Activity in relieving intestinal lumen dilatation: * p < 0.05; ** p < 0.01; *** p < 0.001; “−“ indicates absence of activity; “+” indicates some relief of intestinal lumen dilatation; “#” indicates that all the zebrafishes died in the experiment; “&” indicates that 13 zebrafishes died in the experiment; details: for Activity in relieving intestinal lumen dilatation: 1000 μg/mL, significance vs model control group of the same batch; for Intestinal lumen area (pixels, mean ± SE): 2 days after TNBS, n = 10
Method: Experimental animals: Wild-type AB strain zebrafishes, bred by natural pair mating. Zebrafishes aged 3 days post fertilization (3 dpf). Zebrafishes were kept in fish farming water at 28° C. (water quality: 200 mg of instant sea salt in each 1L of reverse osmosis water, with the conductivity of 450-550 μS/cm; pH of 6.5-8.5; and hardness of 50-100 mg/L CaCO3), the experimental animal use license number is: SYXK (Zhe) 2012-0171, and the breeding management met the requirements of the international AAALAC certification (certification number: 001458).
(1) Grouping: Polypeptide group: prepared into a stock solution of 20.0 mg/mL with ultrapure water and stored at −20° C.
Positive control group: prednisone, as white powder, with batch number C10016501, Shanghai Macklin Biochemical Technology Co., Ltd., stored at 4° C.; prepared into a 15.0 mg/mL stock solution with DMSO, and stored in aliquots at −20° C.
Normal control group and model control group.
(2) Experimental method: 3 dpf wild-type AB strain zebrafishes were randomly selected and placed in a 6-well plate, with 30 zebrafishes in each well (experimental group). Except for the normal control group, all other experimental groups were given TNBS in water to establish the zebrafish model of intestinal mucosal injury. After 2 days of treatment at 28° C., TNBS was removed, and polypeptide compound in water (at concentrations shown in Table 4) was given respectively, and for the positive control, prednisone was 15.0 μg/mL. A normal control group (healthy group) and a model control group (intestinal mucosal injury group) were set up at the same time. The capacity of each well (experimental group) was 3 mL. After 2 days of treatment at 28° C., 10 zebrafishes were randomly selected from each experimental group and photographed under a dissecting microscope. NIS-Elements D 3.20 advanced image processing software was used to analyze and collect data, and the intestinal lumen area of the zebrafish was analyzed. The statistical analysis results of this indicator were used to evaluate the efficacy of the samples in relieving colitis. The statistics results were expressed as mean±SE. SPSS26.0 software was used for statistical analysis, and p<0.05 indicates statistically significant difference.
The concentration gradient of the test substances set in this experimental system was 250 μg/mL, 500 μg/mL, and 1000 μg/mL. […] When the concentration of the test substance was further increased for intervention, the death phenomenon of zebrafishes was found in the group; therefore, in the subsequent rounds of activity evaluation, each test polypeptide compound was uniformly administered at 1000 μg/mL for intervention.

[3] = D 0-D 14, compound 12: 0.8 mg/kg, mesalazine: 30.0 mg/kg, enema once a day 14 days, mean ± SD
[4] = D 14, compound 12: 0.8 mg/kg, mesalazine: 30.0 mg/kg, enema once a day 14 days, mean ± SD
[5] = experimental endpoint, compound 12: 0.8 mg/kg, mesalazine: 30.0 mg/kg, enema once a day 14 days, mean ± SD
[6] = set treatment regimen, enema once a day 14 days, vs model control group

Row | Molecule | Activity in relieving intestinal lumen dilatation [2] | other results
1 | Nc1ccc(O)c(C(=O)O)c1 [Mesalazine, mesalazine, reference compound] |  | Body weight, Grouping day (D 0, g) ([1]; D 0, before treatment, compound 12: 0.8 mg/kg, mesalazine: 30.0 mg/kg, enema once a day, mean ± SD): 276.64 ± 7.47 g; DAI score AUC(0-14 d) (D 0-D 14) [1, 3]: 58.75 ± 2.93; Weight change range (D 0-D 14, %) [1, 3]: −4.29 ± 7.79%; DAI score, Experimental day 1 (D 1, point) ([1]; D 1, compound 12: 0.8 mg/kg, mesalazine: 30.0 mg/kg, enema once a day, mean ± SD): 4.2 ± 0.4 point; DAI score, Experimental day 3 (D 3, point) ([1]; D 3, compound 12: 0.8 mg/kg, mesalazine: 30.0 mg/kg, enema once a day, mean ± SD): 6.2 ± 0.6 point; Body weight, Experimental day 5 (D 5, g) ([1]; D 5, compound 12: 0.8 mg/kg, mesalazine: 30.0 mg/kg, enema once a day, mean ± SD): 234.86 ± 8.07 g; Body weight, Experimental endpoint (D 14, g) [1, 4]: 264.43 ± 17.65 g; DAI score, Experimental endpoint (D 14, point) [1, 4]: 2.1 ± 1.6 point; Colon length (cm) [1, 5]: 14.76 ± 2.06 cm; Colon ulcer and inflammation score (point) [1, 5]: 4.30 ± 0.95 point; Colon weight (g) [1, 5]: 3.42 ± 1.15^ g; Colonic adhesion score (point) [1, 5]: 2.60 ± 0.52 point; Effect on disease progression of ulcerative colitis / DAI scores (in words) [1, 6]: no significant effect on the disease symptoms of ulcerative colitis; Effect on weight gain inhibition / weight loss response of model animals (in words) [1, 6]: did not show a significant weight improvement effect
2 | Gln-Ala-Lys-Pro (QAKP; printed: Gln-Ala-Lys-Pro) [Compound 17] | + | 
3 | KEPVPQAKPRKVAAN [Compound 104] | *** (*** p < 0.001) | 
4 | RKDVYEPVPQAK [Compound 93] | * (* p < 0.05) | 
5 | NPVPQAK [Compound 50] | * (* p < 0.05) | 
6 | Ala-Lys-Pro-Arg (AKPR; printed: Ala-Lys-Pro-Arg) [Compound 11] | + | 
7 | KEPVPQA[dK]PRKVAAQ [Compound 68] | ** (** p < 0.01) | 
8 | EPVPAAK [Compound 47] | + | 
9 | KEPAPQAKPRKVAAQ [Compound 25] | ** (** p < 0.01) | 
10 | SSEDIKEPVPQ [Compound 99] | * (* p < 0.05) | 
11 | GPETAFLREPVPQAK [Compound 96] | *** (*** p < 0.001) | 
12 | pyro-Glu-Leu-Lys-Glu-Pro-Val-Pro-Gln-Ala-Lys-Pro-Arg-Lys-Val-Ala-Ala-Gln ([pGlu]LKEPVPQAKPRKVAAQ; also: acetate salt) [Compound 89] | ** (** p < 0.01) | 
13 | Val-Ala-Ala-Gln (VAAQ; printed: Val-Ala-Ala-Gln) [Compound 8] | + | 
14 | EAVPQAK [Compound 53] | * (* p < 0.05) | 
15 | Pro-Arg-Lys-Val (PRKV; printed: Pro-Arg-Lys-Val) [Compound 18] | − | 
16 | PAYKEPVPQAKPRKVAAQ [Compound 90] | * (* p < 0.05) | 
17 | EPVPEAK [Compound 55] | * (* p < 0.05) | 
18 | RKDVYKEPVPQAKPRKVAAQ [Compound 91] | + | 
19 | KEPVPQAKP[dR]KVAAQ [Compound 70] | * (* p < 0.05) | 
20 | EPVPQAR [Compound 45] | # | 
21 | SSEDIKEEPVPQAK [Compound 98] | ** (** p < 0.01) | 
22 | EPVP[dQ]AK [Compound 82] | + | 
23 | Lys-Pro-Arg-Lys (KPRK; printed: Lys-Pro-Arg-Lys) [Compound 10] | ** (** p < 0.01) | 
24 | Arg-Lys-Val-Ala (RKVA; printed: Arg-Lys-Val-Ala) [Compound 15] | * (* p < 0.05) | Intestinal lumen area (pixels, mean ± SE) ([2]; 250 μg/mL in water): 40719 ± 4647 pixels; Intestinal lumen area (pixels, mean ± SE) ([2]; 500 μg/mL in water): 31319 ± 5274 pixels; Intestinal lumen area (pixels, mean ± SE) ([2]; 1000 μg/mL in water): 30268 ± 2437 pixels; Intestinal lumen area compared with the model control group (in words) ([2]; 250, 500, 1000 μg/mL, Table 4): significant statistical differences compared with the model control group
